Test results reported in the supplement of paper PMC11061612.

What was measured:
AZD2811 = compound: CCN(CCO)CCCOc1ccc2c(Nc3cc(CC(=O)Nc4cccc(F)c4)[nH]n3)ncnc2c1 [AZD2811]; details: max 1 µM
How it was run: (§1)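 Cancer cell lines were seeded in 1536-well plates in 7.5 μl DMEM/F12 or RPMI with 10% FBS, held 24 hours at 37°C and 5% CO2, then dosed for 72 hours (final DMSO typically 0.2%). Viability was read by CellTiter-Glo 2.0 luminescence and scaled between blank-well and DMSO-well means. The single-agent IC50 comes from dose responses fitted to a two-parameter logistic curve with a non-linear mixed effects model.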

SN-38 = compound: CCc1c2c(nc3ccc(O)cc13)-c1cc3c(c(=O)n1C2)COC(=O)[C@]3(O)CC [SN-38]; details: max 0.3 µM
How it was run: as §1

AZD5991 = compound: Cc1c2c(nn1C)CSCc1cc(n(C)n1)CSc1cc(c3ccccc3c1)OCCCc1c(C(=O)O)n(C)c3c-2c(Cl)ccc13 [AZD5991]; details: max 1 µM
How it was run: as §1

Gefitinib = compound: COc1cc2ncnc(Nc3ccc(F)c(Cl)c3)c2cc1OCCCN1CCOCC1 [Gefitinib]; details: max 10 µM
How it was run: as §1

Lapatinib = compound: CS(=O)(=O)CCNCc1ccc(-c2ccc3ncnc(Nc4ccc(OCc5cccc(F)c5)c(Cl)c4)c3c2)o1 [Lapatinib]; details: max 10 µM
How it was run: as §1

AZD5153 = compound: COc1nnc2ccc(N3CCC(c4ccc(OCCN5CCN(C)C(=O)[C@H]5C)cc4)CC3)nn12 [AZD5153]; details: max 1 µM
How it was run: as §1

Carboplatin = compound: C1CC(C1)(C(=O)[O-])C(=O)[O-].N.N.[Pt+2] [Carboplatin]; details: max 10 µM
How it was run: as §1

AZD4320 = compound: CN(CC[C@H](CSC1=CC=CC=C1)NC2=C(C=C(C=C2)S(=O)(=O)NC(=O)C3=CC=C(C=C3)N4CCC(CC4)[C@H](C5=CC=CC=C5C6=CC=C(C=C6)Cl)O)S(=O)(=O)C(F)(F)F)CCO [AZD4320]; details: max 1 µM
How it was run: as §1

[1] = compound: O=C(Nc1ccc2[nH]nc(-c3ccncc3)c2c1)[C@@H]1CCN(CC(=O)N2CCN(c3ccc(-c4ncccn4)cc3)CC2)C1; details: max 5 µM
How it was run: as §1

Etoposide = compound: COc1cc([C@@H]2c3cc4c(cc3[C@@H](O[C@@H]3O[C@@H]5CO[C@@H](C)O[C@H]5[C@H](O)[C@H]3O)[C@H]3COC(=O)[C@H]23)OCO4)cc(OC)c1O [Etoposide]; details: max 10 µM
How it was run: as §1

5-Fluorouracil = compound: O=c1[nH]cc(F)c(=O)[nH]1 [5-Fluorouracil]; details: max 20 µM
How it was run: as §1

Prexasertib = compound: COc1cccc(OCCCN)c1-c1cc(Nc2cnc(C#N)cn2)n[nH]1 [Prexasertib]; details: max 1 µM
How it was run: as §1

Crizotinib = compound: C[C@@H](Oc1cc(-c2cnn(C3CCNCC3)c2)cnc1N)c1c(Cl)ccc(F)c1Cl [Crizotinib]; details: max 10 µM
How it was run: as §1

Paclitaxel = compound: CC(=O)O[C@H]1C(=O)[C@@]2(C)[C@H]([C@H](OC(=O)c3ccccc3)[C@]3(O)C[C@H](OC(=O)[C@H](O)[C@@H](NC(=O)c4ccccc4)c4ccccc4)C(C)=C1C3(C)C)[C@]1(OC(C)=O)CO[C@@H]1C[C@@H]2O [Paclitaxel]; details: max 3 µM
How it was run: as §1

Gemcitabine = compound: Nc1ccn([C@@H]2O[C@H](CO)[C@@H](O)C2(F)F)c(=O)n1 [Gemcitabine]; details: max 0.3 µM
How it was run: as §1

AZD5363 = compound: C1CN(CCC1(C(=O)N[C@@H](CCO)C2=CC=C(C=C2)Cl)N)C3=NC=NC4=C3C=CN4 [AZD5363]; details: max 10 µM
How it was run: as §1

AZD7648 = compound: Cc1cc2ncnn2cc1Nc1ncc2c(n1)n(C1CCOCC1)c(=O)n2C [AZD7648]; details: max 10 µM
How it was run: as §1

Alisertib = compound: COc1cc(Nc2ncc3c(n2)-c2ccc(Cl)cc2C(c2c(F)cccc2OC)=NC3)ccc1C(=O)O [Alisertib]; details: max 10 µM
How it was run: as §1

Selumetinib = compound: Cn1cnc2c(F)c(Nc3ccc(Br)cc3Cl)c(C(=O)NOCCO)cc21 [Selumetinib]; details: max 10 µM
How it was run: as §1

AZD1390 = compound: CC(C)n1c(=O)n(C)c2cnc3cc(F)c(-c4ccc(OCCCN5CCCCC5)nc4)cc3c21 [AZD1390]; details: max 0.3 µM
How it was run: as §1

Savolitinib = compound: C[C@@H](c1ccc2nccn2c1)n1nnc2ncc(-c3cnn(C)c3)nc21 [Savolitinib]; details: max 1 µM
How it was run: as §1

AZD1775 = compound: C=CCn1c(=O)c2cnc(Nc3ccc(N4CCN(C)CC4)cc3)nc2n1-c1cccc(C(C)(C)O)n1 [AZD1775]; details: max 3 µM
How it was run: as §1

Doxorubicin = compound: COc1cccc2c1C(=O)c1c(O)c3c(c(O)c1C2=O)C[C@@](O)(C(=O)CO)C[C@@H]3O[C@H]1C[C@H](N)[C@H](O)[C@H](C)O1 [Doxorubicin]; details: max 1 µM
How it was run: as §1

AZD0156 = compound: CN(C)CCCOc1ccc(-c2ccc3ncc4c(c3c2)n(C2CCOCC2)c(=O)n4C)cn1 [AZD0156]; details: max 3 µM
How it was run: as §1

AZD8186 = compound: C[C@@H](Nc1cc(F)cc(F)c1)c1cc(C(=O)N(C)C)cc2c(=O)cc(N3CCOCC3)oc12 [AZD8186]; details: max 10 µM
How it was run: as §1

Trametinib = compound: CC(=O)Nc1cccc(-n2c(=O)n(C3CC3)c(=O)c3c(Nc4ccc(I)cc4F)n(C)c(=O)c(C)c32)c1 [Trametinib]; details: max 1 µM
How it was run: as §1

SG3199 = compound: CC1=CN2[C@@H](C1)C=NC3=CC(=C(C=C3C2=O)OC)OCCCCCOC4=C(C=C5C(=C4)N=C[C@@H]6CC(=CN6C5=O)C)OC [SG3199]; details: max 0.001 µM
How it was run: as §1

Palbociclib = compound: CC(=O)c1c(C)c2cnc(Nc3ccc(N4CCNCC4)cn3)nc2n(C2CCCC2)c1=O [Palbociclib]; details: max 10 µM
How it was run: as §1

Venetoclax = compound: CC1(C)CCC(CN2CCN(c3ccc(C(=O)NS(=O)(=O)c4ccc(NCC5CCOCC5)c([N+](=O)[O-])c4)c(Oc4cnc5[nH]ccc5c4)c3)CC2)=C(c2ccc(Cl)cc2)C1 [Venetoclax]; details: max 1 µM
How it was run: as §1

Dasatinib = compound: CC1=C(C(=CC=C1)Cl)NC(=O)C2=CN=C(S2)NC3=CC(=NC(=N3)C)N4CCN(CC4)CCO [Dasatinib]; details: max 2 µM
How it was run: as §1

Olaparib = compound: O=C(c1cc(Cc2n[nH]c(=O)c3ccccc23)ccc1F)N1CCN(C(=O)C2CC2)CC1 [Olaparib]; details: max 10 µM
How it was run: as §1

Taselisib = compound: Cc1nc(-c2cn3c(n2)-c2ccc(-c4cnn(C(C)(C)C(N)=O)c4)cc2OCC3)n(C(C)C)n1 [Taselisib]; details: max 10 µM
How it was run: as §1

SRA737 = compound: N#Cc1cnc(Nc2cc(NC[C@H]3CNCCO3)c(C(F)(F)F)cn2)cn1 [SRA737]; details: max 10 µM
How it was run: as §1

AZD6738 = compound: C[C@@H]1COCCN1C2=NC(=NC(=C2)C3(CC3)[S@](=N)(=O)C)C4=C5C=CNC5=NC=C4 [AZD6738]; details: max 10 µM
How it was run: as §1

MK-2206 = compound: NC1(c2ccc(-c3nc4ccn5c(=O)[nH]nc5c4cc3-c3ccccc3)cc2)CCC1 [MK-2206]; details: max 10 µM
How it was run: as §1

Cell Line | IC50, cell viability 72 h (AZD2811) | IC50, cell viability 72 h (SN-38) | IC50, cell viability 72 h (AZD5991) | IC50, cell viability 72 h (Gefitinib) | IC50, cell viability 72 h (Lapatinib) | IC50, cell viability 72 h (AZD5153) | IC50, cell viability 72 h (Carboplatin) | IC50, cell viability 72 h (AZD4320) | IC50, cell viability 72 h [1] | IC50, cell viability 72 h (Etoposide) | IC50, cell viability 72 h (5-Fluorouracil) | IC50, cell viability 72 h (Prexasertib) | IC50, cell viability 72 h (Crizotinib) | IC50, cell viability 72 h (Paclitaxel) | IC50, cell viability 72 h (Gemcitabine) | IC50, cell viability 72 h (AZD5363) | IC50, cell viability 72 h (AZD7648) | IC50, cell viability 72 h (Alisertib) | IC50, cell viability 72 h (Selumetinib) | IC50, cell viability 72 h (AZD1390) | IC50, cell viability 72 h (Savolitinib) | IC50, cell viability 72 h (AZD1775) | IC50, cell viability 72 h (Doxorubicin) | IC50, cell viability 72 h (AZD0156) | IC50, cell viability 72 h (AZD8186) | IC50, cell viability 72 h (Trametinib) | IC50, cell viability 72 h (SG3199) | IC50, cell viability 72 h (Palbociclib) | IC50, cell viability 72 h (Venetoclax) | IC50, cell viability 72 h (Dasatinib) | IC50, cell viability 72 h (Olaparib) | IC50, cell viability 72 h (Taselisib) | IC50, cell viability 72 h (SRA737) | IC50, cell viability 72 h (AZD6738) | IC50, cell viability 72 h (MK-2206)
PANC-02-03 (Pancreatic Carcinoma) | > 1000 nM | 137 nM | > 1000 nM | > 10000 nM | > 10000 nM | 494 nM | > 10000 nM | > 1000 nM | 2930 nM | > 10000 nM | > 20000 nM | 405 nM | > 10000 nM | 1670 nM | > 300 nM | > 10000 nM | > 10000 nM | > 10000 nM | > 10000 nM | > 300 nM | > 1000 nM | 1790 nM | > 1000 nM | > 3000 nM | > 10000 nM | 259 nM | > 1 nM | > 10000 nM | > 1000 nM | > 2000 nM | > 10000 nM | > 10000 nM | > 10000 nM | > 10000 nM | > 10000 nM
PC-14 (Lung Adenocarcinoma) | > 1000 nM | 104 nM | > 1000 nM | 127 nM | 1700 nM | > 1000 nM | > 10000 nM | > 1000 nM | > 5000 nM | > 10000 nM | > 20000 nM | 25.4 nM | 6020 nM | 8.94 nM | 56.2 nM | > 10000 nM | > 10000 nM | 2960 nM | > 10000 nM | > 300 nM | > 1000 nM | 407 nM | > 1000 nM | > 3000 nM | > 10000 nM | 453 nM | > 1 nM | > 10000 nM | > 1000 nM | 129 nM | > 10000 nM | 4700 nM | 3330 nM | 2680 nM | > 10000 nM
RMG-I (Ovarian Carcinoma) | > 1000 nM | > 300 nM | > 1000 nM | > 10000 nM | > 10000 nM | 647 nM | > 10000 nM | 593 nM | > 5000 nM | > 10000 nM | > 20000 nM | 301 nM | > 10000 nM | > 3000 nM | > 300 nM | > 10000 nM | > 10000 nM | > 10000 nM | > 10000 nM | > 300 nM | > 1000 nM | > 3000 nM | > 1000 nM | > 3000 nM | > 10000 nM | > 1000 nM | > 1 nM | > 10000 nM | > 1000 nM | > 2000 nM | > 10000 nM | 8320 nM | > 10000 nM | > 10000 nM | > 10000 nM
SK-MM-2 (Plasma Cell Myeloma) | > 1000 nM | 76.4 nM | > 1000 nM | > 10000 nM | > 10000 nM | 32.5 nM | > 10000 nM | 3.02 nM | > 5000 nM | > 10000 nM | > 20000 nM | 119 nM | > 10000 nM | > 3000 nM | > 300 nM | > 10000 nM | > 10000 nM | 1810 nM | > 10000 nM | > 300 nM | > 1000 nM | > 3000 nM | > 1000 nM | > 3000 nM | > 10000 nM | > 1000 nM | > 1 nM | > 10000 nM | 2.5 nM | > 2000 nM | > 10000 nM | > 10000 nM | > 10000 nM | > 10000 nM | > 10000 nM
SW684 (Other Solid Carcinomas) | > 1000 nM | > 300 nM | > 1000 nM | > 10000 nM | > 10000 nM | > 1000 nM | > 10000 nM | > 1000 nM | > 5000 nM | > 10000 nM | > 20000 nM | > 1000 nM | > 10000 nM | 1430 nM | > 300 nM | > 10000 nM | > 10000 nM | > 10000 nM | > 10000 nM | > 300 nM | > 1000 nM | > 3000 nM | > 1000 nM | > 3000 nM | > 10000 nM | > 1000 nM | > 1 nM | > 10000 nM | > 1000 nM | > 2000 nM | > 10000 nM | 3530 nM | > 10000 nM | > 10000 nM | > 10000 nM
